Laboratory results from patent US20250011726A1, “METHODS AND COMPOSITIONS FOR MAINTAINING AGGREGATE STABILITY AND PLURIPOTENCY OF STEM CELLS” (Trailhead Biosystems Inc., priority 2023, published 2025).

Key:
[1] = test system: hiPSCs; assay: Pluripotency marker expression by flow cytometry and qPCR; format: cell-based, human; conditions: for factor contribution (FC), NANOG optimization: MODDE optimizer for NANOG
Procedure: 3 ml sample was taken from each bioreactor on day 4 of the culture for qPCR testing. RNA samples were dissolved in Trizol and extracted. Quantification of RNA was performed on epoch reader. A high-Capacity cDNA RT Kit was used for reverse transcription of RNA samples of each bioreactor. 3 replicate samples of cDNA were obtained from 3 replicate samples of each bioreactor. Data collection was performed using QuantStudio for qPCR testing. The runs were performed per the manufacturer's protocol and recommendations. The primers used were NANOG, SOX2, POU5F1 and GAPDH. The data set obtained was then exported to Excel and normalized against corresponding housekeeping gene GAPDH. Final expression levels were expressed as 1/(2^Crt)×1000 and inputted into the MODDE software. A 3 ml sample was taken from each bioreactor on day 4 of the culture for flow testing. The aggregates were dissociated with Accutase for 10 minutes into single cells. Cells were resuspended in PBS and divided into samples for intracellular staining and cells for extracellular staining. Sample for intracellular staining were fixed with a live/dead stain FVS 780, then permeabilized and stained for OCT4 and SOX2.
Pluripotency data was assessed at the end of the experiment through Immunohistochemistry (IHC), flow cytometry and qPCR testing. The experiment was divided into two batches of experiments to be run at different times. Three replicated center point experiments with all five additives at mid-concentrations were used and split between the batches for normalization and model evaluation purposes. The optimization criteria were based on multiple attributes related to aggregate stability, cell growth and pluripotency. Mathematical models were generated and tuned for maximal predictive power and fit. The model responses for each parameter were statistically evaluated for model reproducibility, model validity, fit (R2) and prediction precision (Q2). […] The model had model validity above 0.25 indicating the absence of problems related to outliers and transformation issues.
Attaining maximal growth conditions of iPSC is not meaningful unless the iPSC state characteristics is also maintained. […] At the end of the experiment, using flow cytometry we tested for SSEA4, OCT4, SOX2 and TRA-1-60 while a complimentary q-PCR assessment was conducted for NANOG, OCT4 and SOX2. The results of these experiments were used to model the effect of the additives on pluripotency. […] This is because that until proven that individual factors are not in regulatory conflict (i.e., SOX2, NANOG, or OCT4 being subject to differential control), single-response factor optimization is prudent. As we found, these factors are indeed subject to differential control.

[2] = test system: hiPSC aggregates; assay: Aggregate size, deviation and Aggregate % Error in bioreactor; format: cell-based, human; conditions: DS and pluronic F68 at low concentrations; heparin sodium salt and PEG present; FIG. 4B
Procedure: Samples from the bioreactor were taken after slightly mixing using a pipette to avoid sampling bias and gradient formation after settling. 3 ml total was sampled daily for 3 samples of 1 ml for cell count. The cells were first dissociated using Accutase and incubated for 10minutes. Cells were then quenched with E8 then centrifuged at 400×g for 6 minutes. The pellet was resuspended in the same volume of PBS. Samples were then analyzed for total cell count using Attune flow. 3 replicate counts were collected for each bioreactor for each day of culture. 2 samples were collected for aggregate imaging of 500 ul and put on a 24 well plate. EVOS 7000 was used for bright field images of the aggregates. […] A minimum of 30 aggregates were measured for each bioreactor every day of the culture. […] The cell counts were also analyzed for doubling time using GraphPad Prism. […] Using the aggregate size generated from day 1 from all bioreactors and their corresponding cell growth rate, a predicted aggregate size was calculated for day 3 and compared to the actual size measured. The predicted aggregate size was calculated from theoretical aggregate volume. […]
From the cell number, the predicted aggregate volume (V3P) was calculated again from the first equation. […] This is calculated by subtracting the predicted from the actual average size measured and divided by the actual value: […]

[3] = coefficients of flow and qPCR markers, FIG. 3B

Row | Substance | factor contribution (FC), NANOG optimization [1] | contribution factor, optimizer for target aggregate % error of 0 [2] | impact on NANOG (coefficient) [1, 3] | impact on OCT4 (coefficient) [1, 3]
1 | Heparin sodium salt [reference compound] | 21.12 | 21.71 |  | 
2 | dextran sulfate [DS] | 48.04 | 28.05 | positive | negative
